Tests used:
EPCR High cell group [1] = assay: Ex vivo culture of mouse EPCR High cell group for 4 days, flow cytometry and cell count; assay type: cell-based; conditions: cultured for 4 days, vs control
Description: The expression of c-kit and EPCR in a hematopoietic stem cell fraction (lineage: CD150+, CD48-) isolated from a mouse by using flow cytometry was checked. Among the c-kit-positive and EPCR-positive cells, a cell group of the top 30% of the EPCR-positive cells was defined as an EPCR High cell group, and a cell group of the bottom 30% of the EPCR-positive cells was defined as an EPCR Low cell group (see FIG. 1). Each cell group was transplanted into a recipient mouse, and 20 weeks later, the proportion of cells derived from the transplanted stem cells was examined in the peripheral blood (PB). In addition, at the same time, the proportion of cells derived from the transplanted stem cells was examined in the hematopoietic stem cell fraction ([…]) in the bone marrow after 20 weeks of the transplantation. The experiment was carried out twice. […] The culture medium used for the ex vivo culture of the untreated hematopoietic stem cells isolated from the mouse is a culture medium obtained by adding, to the RPMI medium, L-Alanin (4.45mg/L), Zinc Sulfate Heptahydrate (0.432mg/L), Cupric Sulfate Pentahydrate (0.0013mg/L), Ferric Nitrate Nonahydrate (0.05mg/L), Ferrous Sulfate Heptahydrate (0.417mg/L), Linoleic acid (0.042mg/L), Hypoxanthine (2.1mg/L), Putrescine + 2HCL (0.081mg/L), Thioctic Acid (0.105mg/L), Thymidine (0.365mg/L), Sodium Pyruvate (55mg/L), HEPES (1mM), a penicillin-streptomycin mixed solution (Nacalai Tesque, Inc.: 26253-84) (1/100 capacity), Insulin-Transferrin-Selenium-Ethanolamine (Thermo Fisher Scientific, Inc.: 51500056) (1/100 capacity), and AlbuMAXtm I Lipid-Rich BSA (Thermo Fisher Scientific, Inc.: 11020021) (2%). As shown in FIG. 5(A), α-ketoglutaric acid (αKG), which is an intermediate metabolite of the TCA cycle, is also produced from glutamic acid or the like, and then it is supplied to the TCA cycle. In addition, in the production of α-ketoglutaric acid from glutamic acid, two pathways of a transaminase pathway and a glutamate dehydrogenase pathway are used (see FIG. 5(B)). Therefore, the proportion of EPCR High in hematopoietic stem cells was determined in a case where the EPCR High cell group was cultured for 4 days by adding each of an inhibitor […] (30 μM) of glutamate dehydrogenase and an inhibitor aminooxyacetic acid (AOA) (50 μM) of transaminase to the culture medium, and in a case where the content of […] in the culture medium, which is the source of glutamic acid synthesis, was set to 1/100 (0.02 mM) in FIG. 5(A) (Low Neu.). […] As a result, in a case of culturing in the presence of […], the number of cells having the EPCR High phenotype is increased by about 2 times in the culture for 4 days, as compared with the culture under the normal culture conditions. […]

EPCR High cell group [2] = assay: Chromatin status by open chromatin region analysis (ATAC-sequence) with principal component analysis; assay type: cell-based, mouse; conditions: 4d gEPCR-High (R162) compared with 4d gEPCR-High, cultured for 4 days
Procedure: In the same manner, the chromatin status of each cell group was analyzed by open chromatin region analysis (ATAC-sequence).

recipient mouse = assay: Transplantation of cultured cell groups into recipient mouse, proportion of donor-derived cells; assay type: in vivo
Procedure: Mouse EPCR High cells were cultured for 4 days under the normal culture conditions or in the presence of R162, and 50 cells of each of an EPCR High cell group (Control) generated under the normal culture conditions, an EPCR Low cell group (Control), and an EPCR High cell group (R162) amplified in the presence of R162 were aliquoted and then transplanted into a recipient mouse. Then, after 4 weeks and 12 weeks, the proportion of cells derived from donor cells in the peripheral blood was examined.
Further, the EPCR High cells were cultured for 4 days under the normal culture conditions and cultured for 4 days in the presence of R162, and the EPCR High cell group generated under the normal culture conditions, the EPCR Low cell group, and the EPCR High cell group (R162) amplified in the presence of R162 were each transplanted into a recipient mouse. Then, 20 weeks later, the proportion of cells derived from donor cells was examined in the peripheral blood and the hematopoietic stem cell fraction in the bone marrow (L-ESLAM (BM)).

[3] = tested on: Human CD34^+ bone marrow cells; assay: Culture of human CD34+ bone marrow cells for 7 days, total cell count and flow cytometry; assay type: cell-based
Procedure: Human CD34^+ bone marrow cells (10,000 cells) were cultured for 7 days under normal culture conditions or in the presence of a glutamate dehydrogenase inhibitor R162 (30 µM), and then the total number of cells was analyzed. Then, the proportion of hematopoietic stem cells (lineage: CD34+ CD38- CD90+ cells) was analyzed using a flow cytometer, and from the results, the number of stem cells was estimated. FIG. 13 and FIG. 14 show the results. As shown in FIG. 14(A), it has been confirmed that the total number of cells is not changed by the presence of R162 as compared with the control, whereas as shown in FIG. 14(B), the ratio of stem cells after culturing is increased by the presence of R162.
The culture medium used for the ex vivo culture of human CD34+ bone marrow cells is a culture medium obtained by adding, to the RPMI medium, L-Alanin (4.45mg/L), Zinc Sulfate Heptahydrate (0.432mg/L), Cupric Sulfate Pentahydrate (0.0013mg/L), Ferric Nitrate Nonahydrate (0.05mg/L), Ferrous Sulfate Heptahydrate (0.417mg/L), Linoleic acid (0.042mg/L), Hypoxanthine (2.1mg/L), Putrescine + 2HCL (0.081mg/L), Thioctic Acid (0.105mg/L), Thymidine (0.365mg/L), Sodium Pyruvate (55mg/L), HEPES (1mM), a penicillin-streptomycin mixed solution (Nacalai Tesque, Inc.: 26253-84) (1/100 capacity), Insulin-Transferrin-Selenium-Ethanolamine (Thermo Fisher Scientific, Inc.: 51500056) (1/100 capacity), and AlbuMAXtm I Lipid-Rich BSA (Thermo Fisher Scientific, Inc.: 11020021) (2%).

EPCR High cell group [4] = assay: Gene expression pattern analysis by RNA-sequence with principal component analysis; assay type: cell-based, mouse; conditions: 4d gEPCR-High (R162) compared with 4d gEPCR-High, cultured for 4 days

`NOCC(=O)O` [AOA, aminooxyacetic acid] was tested, and the number of cells (EPCR High cell group [1]; AOA 50 µM) was “significantly reduced as compared with the control”.

For `O=C(O[C@@H]1Cc2c(O)cc(O)cc2O[C@@H]1c1cc(O)c(O)c(O)c1)c1cc(O)c(O)c(O)c1` [EGCG, epigallo catechin-3-gallate], the “proportion of EPCR-positive cells (phenotype of EPCR High)” value (EPCR High cell group [1]; EGCG 50 µM in culture medium) was “phenotype of EPCR High is maintained”.

`C=CCc1ccc2c(c1O)C(=O)c1ccccc1C2=O` [R162, 2-allyl-1-hydroxy-9,10-anthraquinone] was tested, and the “chromatin status (chromatin accessibility of cis-element regions)” value (EPCR High cell group [2]) was “extremely similar gene expression patterns even in the chromatin status”, the “proportion of EPCR High in hematopoietic stem cells” value (EPCR High cell group [1]; R162 30 µM in culture medium) was “phenotype of EPCR High is maintained” and the number of cells (EPCR High cell group [1]; R162 30 µM) was “about the same level as that of the control”. The “proportion of cells derived from donor cells in the peripheral blood” value (recipient mouse; 50 cells of EPCR High cell group amplified 4 days in the presence of R162, transplanted, after 4 weeks and 12 weeks) was “high ability to reconstruct hematopoietic tissue, which is equivalent to the EPCR High cell group (Control)”, the “proportion of cells derived from donor cells in the peripheral blood and the hematopoietic stem cell fraction in the bone marrow (L-ESLAM (BM))” value (recipient mouse; EPCR High cell group amplified 4 days in the presence of R162, transplanted, 20 weeks later) was “high ability to maintain the reconstructed hematopoiesis for a longer period of time” and the “total number of cells” value ([3]; R162 30 µM, 10,000 cells cultured for 7 days, vs control) was “not changed”. For the same molecule, the “number of stem cells” value ([3]; R162 30 µM, cultured for 7 days, estimated from total cell number and proportion, vs normal culture conditions) was “the number of stem cells is increased”, the “ratio of stem cells after culturing (CD34+ CD38- CD90+ cells)” value ([3]; R162 30 µM, cultured for 7 days, vs control) was “increased” and the gene expression pattern (EPCR High cell group [4]) was “extremely similar gene expression patterns”.

Source: patent EP4653523A1, “CULTURE MEDIUM, PRODUCTION METHOD, AND CELL PREPARATION” (National University Corporation Kumamoto University, priority 2023, dated 2024)
